Results as given in patent US7638538B1, “Pharmaceutically active sulfonyl amino acid derivatives” (Laboratoires Serono S.A., priority 1999, dated 2009).
pIC50: −log10 of the molar value.

Key:
Format in all cases: biochemical
JNK3 = JNK3 (Homo sapiens, UniProt P53779); experiment: JNK3 in vitro kinase assay (SPA, GST-c-Jun substrate)
Protocol: (§1) JNK 2 and 3 in vitro assays: JNK 2 and/or 3 assays are performed 96 well MTT plates, by incubation of 0.5 μg of recombinant, pre-activated GST-JNK2 with 1 μg of recombinant, biotinylated GST-c-Jun and 2 μM ^33γ-ATP (2 nCi/μl), in the presence or absence of sulfonyl amino acid inhibitors and in a reaction volume of 150 μl containing 50 mM Tris-HCl, pH 8.0; 10 mM MgCl2; 1 mM Dithiothreitol, and 100 μM NaVO4. The incubation is carried for 120 min. at R.T and stopped up by addition of 200 μl of a solution containing 250 μg of Streptavidine-coated SPA beads (Amersham, Inc.)*, 5 mM EDTA, 0.1% Trinton X-100 and 50 μM ATP, in phosphate saline buffer. After incubation for 60 minutes at RT, beads are sedimented by centrifugation at 1500×g for 5 minutes, resuspended in 200 μl of PBS containing 5 mM EDTA, 0.1% Triton X-100 and 50 μM ATP and the radioactivity measured in a scintillation β counter, following sedimentation of the beads as described above. By substituting GST-c-Jun for biotinylated GST-1ATF2 or myelin basic protein, this assay can be used to measure inhibition of preactivated p38 and ERK MAP Kinases, respectively.

GST-JNK2 = GST-JNK2 (Homo sapiens, UniProt P45984); experiment: JNK2 in vitro kinase assay (SPA, GST-c-Jun substrate)
Protocol: as §1

p38 = p38 (Homo sapiens, UniProt Q16539); experiment: p38 in vitro kinase assay (SPA, GST-ATF2 substrate)
Protocol: as §1

ERK2 = ERK2 (Homo sapiens, UniProt P28482); experiment: ERK2 in vitro kinase assay (SPA, myelin basic protein substrate)
Protocol: as §1

Chain of p38 (Q16539 whole entry): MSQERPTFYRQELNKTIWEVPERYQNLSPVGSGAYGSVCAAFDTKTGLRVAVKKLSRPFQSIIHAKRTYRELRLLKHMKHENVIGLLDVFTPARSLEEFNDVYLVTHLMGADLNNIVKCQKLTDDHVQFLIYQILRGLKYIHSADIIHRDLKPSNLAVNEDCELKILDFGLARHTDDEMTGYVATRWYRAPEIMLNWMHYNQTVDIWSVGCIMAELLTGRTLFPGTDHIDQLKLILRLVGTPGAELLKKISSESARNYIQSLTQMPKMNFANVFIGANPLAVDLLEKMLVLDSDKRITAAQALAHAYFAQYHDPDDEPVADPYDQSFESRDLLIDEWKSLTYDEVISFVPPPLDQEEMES
Chain of JNK3 (P53779 whole entry, species assumed): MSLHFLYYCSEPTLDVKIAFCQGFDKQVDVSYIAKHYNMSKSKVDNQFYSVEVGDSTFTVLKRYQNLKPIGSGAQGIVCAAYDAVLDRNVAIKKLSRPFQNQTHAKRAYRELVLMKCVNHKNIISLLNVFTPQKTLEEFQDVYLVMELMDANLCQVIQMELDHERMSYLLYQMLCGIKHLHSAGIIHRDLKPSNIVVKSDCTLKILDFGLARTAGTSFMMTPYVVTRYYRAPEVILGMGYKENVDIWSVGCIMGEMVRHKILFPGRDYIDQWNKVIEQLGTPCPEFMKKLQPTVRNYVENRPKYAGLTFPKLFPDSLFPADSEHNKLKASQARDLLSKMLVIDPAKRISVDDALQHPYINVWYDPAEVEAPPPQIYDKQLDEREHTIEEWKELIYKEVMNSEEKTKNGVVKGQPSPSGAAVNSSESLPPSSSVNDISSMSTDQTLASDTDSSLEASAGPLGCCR
Chain of ERK2 (P28482 whole entry, species assumed): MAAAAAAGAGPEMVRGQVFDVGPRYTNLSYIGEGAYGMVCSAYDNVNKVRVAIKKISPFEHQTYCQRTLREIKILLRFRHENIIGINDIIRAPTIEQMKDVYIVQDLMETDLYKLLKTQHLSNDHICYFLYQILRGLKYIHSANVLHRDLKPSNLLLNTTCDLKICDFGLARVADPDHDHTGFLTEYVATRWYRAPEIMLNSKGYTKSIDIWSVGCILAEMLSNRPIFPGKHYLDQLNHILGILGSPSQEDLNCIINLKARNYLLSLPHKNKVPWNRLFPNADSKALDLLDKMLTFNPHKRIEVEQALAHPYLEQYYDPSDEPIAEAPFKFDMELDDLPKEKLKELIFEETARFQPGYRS
Chain of GST-JNK2 (P45984 whole entry): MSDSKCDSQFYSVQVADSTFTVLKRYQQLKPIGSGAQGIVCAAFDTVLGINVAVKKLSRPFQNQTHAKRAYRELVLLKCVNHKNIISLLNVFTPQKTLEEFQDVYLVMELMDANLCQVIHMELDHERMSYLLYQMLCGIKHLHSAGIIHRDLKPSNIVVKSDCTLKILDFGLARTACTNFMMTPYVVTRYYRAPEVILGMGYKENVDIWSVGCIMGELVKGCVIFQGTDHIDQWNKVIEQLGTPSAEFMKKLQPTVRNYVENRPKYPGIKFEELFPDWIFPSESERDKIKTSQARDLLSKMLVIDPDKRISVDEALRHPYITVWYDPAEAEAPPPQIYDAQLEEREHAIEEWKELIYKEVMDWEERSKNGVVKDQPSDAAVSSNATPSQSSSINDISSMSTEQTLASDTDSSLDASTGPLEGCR

| pIC50 (JNK3) | pIC50 (GST-JNK2) | pIC50 (p38) | pIC50 (ERK2) | Compound |
| --- | --- | --- | --- | --- |
| 6.19 | 5.89 | < 4.52 | < 4.52 | O=C(CNS(=O)(=O)c1ccc(CNC(=O)c2ccc(Cl)cc2)s1)Nc1cccc(S(=O)(=O)C(F)(F)F)c1 [Example 6, 4-chloro-N-[(5-{[(2-oxo-2-{3-[(trifluoromethyl)sulfonyl]anilino)ethyl)amino]sulfonyl}thien-2-yl)methyl]benzamide] |
| 5.92 | 5.57 | < 4.52 | < 4.52 | O=C(CNS(=O)(=O)c1ccc(CNC(=O)c2ccc(Cl)cc2)s1)NCCNc1ncc(C(F)(F)F)cc1Cl [Example 1, 4chloro-N-({5-[({2-[(2-{[3-chloro-5-(trifluoromethyl)pyridin-2-yl]amino}ethyl)amino]-2-oxoethyl}amino)sulfonyl]thien-2-yl}methyl)benzamide] |
